Bounds are passed on as bounds.

T1 sequence (Q9GZT9 whole entry): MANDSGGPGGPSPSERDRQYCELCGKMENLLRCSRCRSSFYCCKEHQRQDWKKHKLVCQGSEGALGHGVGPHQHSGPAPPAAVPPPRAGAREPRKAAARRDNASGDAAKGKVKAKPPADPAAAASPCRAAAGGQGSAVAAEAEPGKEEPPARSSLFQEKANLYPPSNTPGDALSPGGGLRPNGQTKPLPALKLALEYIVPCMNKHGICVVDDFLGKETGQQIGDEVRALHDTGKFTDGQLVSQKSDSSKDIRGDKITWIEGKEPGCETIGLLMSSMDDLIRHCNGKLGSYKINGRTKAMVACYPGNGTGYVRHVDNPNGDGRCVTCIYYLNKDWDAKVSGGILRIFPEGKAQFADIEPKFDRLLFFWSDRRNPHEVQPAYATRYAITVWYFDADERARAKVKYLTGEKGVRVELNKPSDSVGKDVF

The assay concerns the target T1, PHD2 (Homo sapiens, UniProt Q9GZT9).
T1 construct: FLAG-tagged full length PHD2 expressed in and purified from baculovirus-infected Sf9 cells; FLAG; made in house; host or cells: baculovirus-infected Sf9 cells
The assay can be described thus: PHD2 / HIF-1α peptide hydroxylation assay, time resolved fluorescence (VHL complex detection). It is filed as biochemical. Particulars: FLAG-tagged full length PHD2; 0.2 μM 2-oxoglutarate, 0.5 μM HIF-1α peptide; read-out: PHD2 Activity (PHD2 binding activity expressed as IC50 (nM)). The protocol:
To each well of a 96-well plate was added 1 μL of test compound in DMSO and 20 μl of assay buffer (50 mM Tris pH 7.4/0.01% Tween-20/0.1 mg/ml bovine serum albumin/10 μM ferrous sulfate/1 mM sodium ascorbate/20 μg/ml catalase) containing 0.15 μg/ml FLAG-tagged full length PHD2 expressed in and purified from baculovirus-infected Sf9 cells. After a 30 min preincubation at room temperature, the enzymatic reactions were initiated by the addition of 4 μL of substrates (final concentrations of 0.2 μM 2-oxoglutarate and 0.5 μM HIF-1α peptide biotinyl-[…]).
The term IC50 denotes the concentration at which inhibition is half-maximal. Regarding `COCc1ccc(C(NC(=O)c2cnc(-c3cccnn3)nc2O)c2ccc(OC)cc2)cc1` (racemic) [Example 181], the IC50 was no more than 10 nM.
For the compound `CC(NC(=O)c1cnc(-n2cccn2)nc1O)c1ccc(C(F)(F)F)nc1` (single isomer, unassigned) [Example 141, 4-hydroxy-2-(1H-pyrazol-1-yl)-N-{1-[6-(trifluoromethyl)pyridin-3-yl]ethyl}pyrimidine-5-carboxamide], the IC50 was no more than 10 nM.
With `O=C(NC(c1ccccc1)c1ccc(C(F)(F)F)nc1)c1cnc(-n2cccn2)nc1O` (single isomer, unassigned) [Example 142, 4-hydroxy-N-{phenyl[6-(trifluoromethyl)pyridin-3-yl]methyl}-2-(1H-pyrazol-1-yl)pyrimidine-5-carboxamide] the figure was no more than 10 nM; with `O=C(NC(c1ccccc1)c1ccc(C(F)(F)F)nc1)c1cnc(-n2cccn2)nc1O` (single isomer, unassigned) [Example 143, 4-hydroxy-N-{phenyl[6-(trifluoromethyl)pyridin-3-yl]methyl}-2-(1H-pyrazol-1-yl)pyrimidine-5-carboxamide], no more than 10 nM.
For `COc1ccc(C(NC(=O)c2cnc(-c3cccnn3)nc2O)c2nc(C)cs2)cc1` (single isomer, unassigned) [Example 144, 4-hydroxy-N-[(4-methoxyphenyl)(4-methyl-1,3-thiazol-2-yl)methyl]-2-(pyridazin-3-yl)pyrimidine-5-carboxamide], the concentration for half-maximal inhibition (IC50) is no more than 10 nM.
As to `COc1ccc(C(NC(=O)c2cnc(-c3cccnn3)nc2O)c2nc(C)cs2)cc1` (single isomer, unassigned) [Example 145, 4-hydroxy-N-[(4-methoxyphenyl)(4-methyl-1,3-thiazol-2-yl)methyl]-2-(pyridazin-3-yl)pyrimidine-5-carboxamide], the IC50 is no more than 10 nM.
As to `COc1ccc(C(NC(=O)c2cnc(-c3cccnn3)nc2O)c2ccc(C)nc2)cc1` (single isomer, unassigned) [Example 146, 4-hydroxy-N-[(4-methoxyphenyl)(6-methylpyridin-3-yl)methyl]-2-(pyridazin-3-yl)pyrimidine-5-carboxamide], the IC50 is no more than 10 nM.
With `COc1ccc(C(NC(=O)c2cnc(-c3cccnn3)nc2O)c2cccc(C#N)c2)cc1` (single isomer, unassigned) [Example 147, N-[(3-cyanophenyl)(4-methoxyphenyl)methyl]-4-hydroxy-2-(pyridazin-3-yl)pyrimidine-5-carboxamide] the figure was no more than 10 nM; with `COc1ccc(C(NC(=O)c2cnc(-c3cccnn3)nc2O)c2cccc(C#N)c2)cc1` (single isomer, unassigned) [Example 148, N-[(3-cyanophenyl)(4-methoxyphenyl)methyl]-4-hydroxy-2-(pyridazin-3-yl)pyrimidine-5-carboxamide], no more than 10 nM; with `COc1ccc(C(NC(=O)c2cnc(-c3cccnn3)nc2O)c2cccc(C)n2)c(OC)c1` (single isomer, unassigned) [Example 149, N-[(2,4-dimethoxyphenyl)(6-methylpyridin-2-yl)methyl]-4-hydroxy-2-(pyridazin-3-yl)pyrimidine-5-carboxamide], no more than 10 nM.
For the compound `COc1ccc(C(NC(=O)c2cnc(-c3cccnn3)nc2O)c2ccc(C#N)cc2)cc1` (single isomer, unassigned) [Example 150, N-[(4-cyanophenyl)(4-methoxyphenyl)methyl]-4-hydroxy-2-(pyridazin-3-yl)pyrimidine-5-carboxamide], the IC50 was no more than 10 nM.
For `COc1ccc(C(NC(=O)c2cnc(-c3cccnn3)nc2O)c2ccc(C#N)cc2)cc1` (single isomer, unassigned) [Example 151, N-[(4-cyanophenyl)(4-methoxyphenyl)methyl]-4-hydroxy-2-(pyridazin-3-yl)pyrimidine-5-carboxamide], the concentration for half-maximal inhibition (IC50) was no more than 10 nM.
`COc1ccc(C(NC(=O)c2cnc(-c3cccnn3)nc2O)c2ccc(OC(F)(F)F)cc2)cc1` (single isomer, unassigned) [Example 152, 4-hydroxy-N-{(4-methoxyphenyl)[4-(trifluoromethoxy)phenyl]methyl}-2-(pyradazin-3-yl)pyrimidine-5-carboxamide]: the half-inhibitory concentration (IC50) is no more than 10 nM.
As for `COc1ccc(C(NC(=O)c2cnc(-c3cccnn3)nc2O)c2ccc(C#N)cc2)c(OC)c1` (single isomer, unassigned) [Example 154, N-[(4-cyanophenyl)(2,4-dimethoxyphenyl)methyl]-4-hydroxy-2-(pyridazin-3-yl)pyrimidine-5-carboxamide], the IC50 was no more than 10 nM.
As for `COc1ccc(C(NC(=O)c2cnc(-c3cccnn3)nc2O)c2ccc(C#N)cc2)c(OC)c1` (single isomer, unassigned) [Example 155, N-[(4-cyanophenyl)(2,4-dimethoxyphenyl)methyl]-4-hydroxy-2-(pyridazin-3-yl)pyrimidine-5-carboxamide], the IC50 was no more than 10 nM.
For `COc1ccc(C(NC(=O)c2cnc(-c3cccnn3)nc2O)c2ccc(O)cc2)cc1` (single isomer, unassigned) [Example 156, 4-hydroxy-N-[(4-hydroxyphenyl)(4-methoxyphenyl)methyl]-2-(pyridazin-3-yl)pyrimidine-5-carboxamide], the half-maximal inhibitory concentration (IC50) is no more than 10 nM.
Then `COc1ccc(C(NC(=O)c2cnc(-c3cccnn3)nc2O)c2ccc(O)cc2)cc1` (single isomer, unassigned) [Example 157, 4-hydroxy-N-[(4-hydroxyphenyl)(4-methoxyphenyl)methyl]-2-(pyridazin-3-yl)pyrimidine-5-carboxamide], with no more than 10 nM.
For the compound `CC(C)CC(NC(=O)c1cnc(-c2cccnn2)nc1O)c1ccc(C#N)cc1` (single isomer, unassigned) [Example 158, N-[1-(4-cyanophenyl)-3-methylbutyl]-4-hydroxy-2-(pyridazin-3-yl)pyrimidine-5-carboxamide], the IC50 is no more than 10 nM.
On to `CC(C)CC(NC(=O)c1cnc(-c2cccnn2)nc1O)c1ccc(C#N)cc1` (single isomer, unassigned) [Example 159, N-[1-(4-cyanophenyl)-3-methylbutyl]-4-hydroxy-2-(pyridazin-3-yl)pyrimidine-5-carboxamide], for which the IC50 was 10 to 100 nM.
With `COc1ccc(CC(NC(=O)c2cnc(-c3cccnn3)nc2O)c2ccc(C#N)cc2)cc1` (single isomer, unassigned) [Example 160, N-[1-(4-cyanophenyl)-2-(4-methoxyphenyl)ethyl]-4-hydroxy-2-(pyridazin-3-yl)pyrimidine-5-carboxamide] the figure was 10 to 100 nM; with `COc1ccc(CC(NC(=O)c2cnc(-c3cccnn3)nc2O)c2ccc(C#N)cc2)cc1` (single isomer, unassigned) [Example 161, N-[1-(4-cyanophenyl)-2-(4-methoxyphenyl)ethyl]-4-hydroxy-2-(pyridazin-3-yl)pyrimidine-5-carboxamide], no more than 10 nM; with `N#Cc1ccc(C(NC(=O)c2cnc(-c3cccnn3)nc2O)C2CCCCC2)cc1` (single isomer, unassigned) [Example 162, N-[(4-cyanophenyl)(cyclohexyl)methyl]-4-hydroxy-2-(pyridazin-3-yl)pyrimidine-5-carboxamide], 100 to 1000 nM.
Then `N#Cc1ccc(C(NC(=O)c2cnc(-c3cccnn3)nc2O)C2CCCCC2)cc1` (single isomer, unassigned) [Example 163, N-[(4-cyanophenyl)(cyclohexyl)methyl]-4-hydroxy-2-(pyridazin-3-yl)pyrimidine-5-carboxamide], with no more than 10 nM; and `COc1ccc(C(NC(=O)c2cnc(-c3cccnn3)nc2O)c2ccc3c(c2)CCO3)cc1` (single isomer, unassigned) [Example 164, N-[2,3-dihydro-1-benzofuran-5-yl(4-methoxyphenyl)methyl]-4-hydroxy-2-(pyridazin-3-yl)pyrimidine-5-carboxamide], with no more than 10 nM; and `COCc1ccc(C(NC(=O)c2cnc(-c3cccnn3)nc2O)c2ccc(OC)cc2)cc1` (single isomer, unassigned) [Example 182, 4-Hydroxy-N-[[4-(methoxymethyl)phenyl](4-methoxyphenyl)methyl]-2-pyridazin-3-ylpyrimidine-5-carboxamide], with no more than 10 nM.
In the case of `COCc1ccc(C(NC(=O)c2cnc(-c3cccnn3)nc2O)c2ccc(OC)cc2)cc1` (single isomer, unassigned) [Example 183, 4-Hydroxy-N-[[4-(methoxymethyl)phenyl](4-methoxyphenyl)methyl]-2-pyridazin-3-ylpyrimidine-5-carboxamide], the 50% inhibitory concentration (IC50) was no more than 10 nM.
Consider `COc1ccc(C(NC(=O)c2cnc(-c3cccnn3)nc2O)c2ccc(OC)nc2)cc1` (single isomer, unassigned) [Example 190], for which the IC50 was no more than 10 nM.
In the case of `COc1ccc(C(NC(=O)c2cnc(-c3cccnn3)nc2O)c2ccc(OC)nc2)cc1` (single isomer, unassigned) [Example 191], the IC50 is no more than 10 nM.
On to `CC(C)(NC(=O)c1cnc(-c2cc(Br)ccn2)nc1O)c1ccccc1` [Example 1, 2-(4-Bromopyridin-2-yl)-4-hydroxy-N-(1-methyl-1-phenylethyl)pyrimidine-5-carboxamide], for which the IC50 is 10 to 100 nM.
On to `O=C(O)c1ccc(-c2ncc(C(=O)NCc3ccc(F)cc3)c(O)n2)nc1` [Example 3, 6-(5-{[(4-Fluorobenzyl)amino]carbonyl}-4-hydroxypyrimidin-2-yl)nicotinic acid], for which the half-maximal inhibitory concentration (IC50) is 10 to 100 nM.
Then `O=C(NC(c1ccc(O)cc1)c1ccc(O)cc1)c1cnc(-c2cccnn2)nc1O` [Example 6, N-[bis(4-hydroxyphenyl)methyl]-4-hydroxy-2-ylpyridazin-3-ylpyrimidine-5-carboxamide], with no more than 10 nM.

Values taken from patent US8278304B2, “Substituted 4-hydroxypyrimidine-5-carboxamides” (Merck Sharp & Dohme Corp., priority 2008, dated 2012).
